{"source": "ChEMBL document CHEMBL1201862", "about": "“PubChem BioAssay data set” (2004)", "experiment_in_all_cases": "DTP human tumour cell line panel, 48 h", "key": {"OVCAR-8": {"system": "OVCAR-8"}, "HCT-116": {"system": "HCT-116"}, "Malme-3M": {"system": "Malme-3M"}, "786-0": {"system": "786-0"}, "BT-549": {"system": "BT-549"}, "CAKI-1": {"system": "CAKI-1"}, "M14": {"system": "M14"}, "SNB-19": {"system": "SNB-19"}, "UO-31": {"system": "UO-31"}, "MCF7": {"system": "MCF7"}, "TK-10": {"system": "TK-10"}, "NCI-H226": {"system": "NCI-H226"}, "NCI/ADR-RES": {"system": "NCI/ADR-RES"}, "RXF 393": {"system": "RXF 393"}, "MDA-MB-231": {"system": "MDA-MB-231"}, "PC-3": {"system": "PC-3"}, "SF-295": {"system": "SF-295"}, "NCI-H23": {"system": "NCI-H23"}, "SK-MEL-2": {"system": "SK-MEL-2"}, "SN12C": {"system": "SN12C"}, "K562": {"system": "K562"}, "A549": {"system": "A549"}, "SR": {"system": "SR"}, "MDA-MB-435": {"system": "MDA-MB-435"}, "KM12": {"system": "KM12"}, "COLO 205": {"system": "COLO 205"}, "SK-MEL-5": {"system": "SK-MEL-5"}, "DU-145": {"system": "DU-145"}, "MDA-N": {"system": "MDA-N"}, "OVCAR-3": {"system": "OVCAR-3"}, "U-251": {"system": "U-251"}, "OVCAR-5": {"system": "OVCAR-5"}, "IGROV-1": {"system": "IGROV-1"}, "CCRF-CEM": {"system": "CCRF-CEM"}, "HT-29": {"system": "HT-29"}, "ACHN": {"system": "ACHN"}, "SF-539": {"system": "SF-539"}, "HOP-62": {"system": "HOP-62"}, "HCC 2998": {"system": "HCC 2998"}, "LOX IMVI": {"system": "LOX IMVI"}, "NCI-H460": {"system": "NCI-H460"}, "SW-620": {"system": "SW-620"}, "SNB-75": {"system": "SNB-75"}, "MOLT-4": {"system": "MOLT-4"}, "OVCAR-4": {"system": "OVCAR-4"}, "RPMI-8226": {"system": "RPMI-8226"}, "SK-OV-3": {"system": "SK-OV-3"}, "T47D": {"system": "T47D"}, "HOP-92": {"system": "HOP-92"}, "Hs-578T": {"system": "Hs-578T"}, "NCI-H522": {"system": "NCI-H522"}, "HCT-15": {"system": "HCT-15"}, "UACC-257": {"system": "UACC-257"}, "SF-268": {"system": "SF-268"}, "EKVX": {"system": "EKVX"}, "SK-MEL-28": {"system": "SK-MEL-28"}}, "note": "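Exposure lasted 48 hours, with cells grown in 96-well plates and compounds tested at five concentrations. At the GI50, growth is halved.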 Calls of active or inactive are those of the source. Cut-off read from the data, not from the text of the source: active = GI50 up to about 1.1 µM and inactive = higher."}
{"smiles": "CC(=O)N(CC(=O)C(=O)NNc1ccoc1)c1ccc(Cl)cc1", "values": [{"measurement": "GI50", "setting": "OVCAR-8", "result": "> 100 µM (inactive)"}, {"measurement": "GI50", "setting": "HCT-116", "result": "> 100 µM (inactive)"}, {"measurement": "GI50", "setting": "Malme-3M", "result": "> 100 µM (inactive)"}, {"measurement": "GI50", "setting": "786-0", "result": "94 µM (inactive)"}, {"measurement": "GI50", "setting": "BT-549", "result": "> 100 µM (inactive)"}, {"measurement": "GI50", "setting": "CAKI-1", "result": "> 100 µM (inactive)"}, {"measurement": "GI50", "setting": "M14", "result": "> 100 µM (inactive)"}, {"measurement": "GI50", "setting": "SNB-19", "result": "> 100 µM (inactive)"}, {"measurement": "GI50", "setting": "UO-31", "result": "77.1 µM (inactive)"}, {"measurement": "GI50", "setting": "MCF7", "result": "50.5 µM (inactive)"}, {"measurement": "GI50", "setting": "TK-10", "result": "> 100 µM (inactive)"}, {"measurement": "GI50", "setting": "NCI-H226", "result": "> 100 µM (inactive)"}, {"measurement": "GI50", "setting": "NCI/ADR-RES", "result": "> 100 µM (inactive)"}, {"measurement": "GI50", "setting": "RXF 393", "result": "> 100 µM (inactive)"}, {"measurement": "GI50", "setting": "MDA-MB-231", "result": "> 100 µM (inactive)"}, {"measurement": "GI50", "setting": "PC-3", "result": "> 100 µM (inactive)"}, {"measurement": "GI50", "setting": "SF-295", "result": "> 100 µM (inactive)"}, {"measurement": "GI50", "setting": "NCI-H23", "result": "> 100 µM (inactive)"}, {"measurement": "GI50", "setting": "SK-MEL-2", "result": "> 100 µM (inactive)"}, {"measurement": "GI50", "setting": "SN12C", "result": "> 100 µM (inactive)"}, {"measurement": "GI50", "setting": "K562", "result": "91.4 µM (inactive)"}, {"measurement": "GI50", "setting": "A549", "result": "> 100 µM (inactive)"}, {"measurement": "GI50", "setting": "SR", "result": "79.4 µM (inactive)"}, {"measurement": "GI50", "setting": "MDA-MB-435", "result": "> 100 µM (inactive)"}, {"measurement": "GI50", "setting": "KM12", "result": "> 100 µM (inactive)"}, {"measurement": "GI50", "setting": "COLO 205", "result": "> 100 µM (inactive)"}, {"measurement": "GI50", "setting": "SK-MEL-5", "result": "> 100 µM (inactive)"}, {"measurement": "GI50", "setting": "DU-145", "result": "87.3 µM (inactive)"}, {"measurement": "GI50", "setting": "MDA-N", "result": "> 100 µM (inactive)"}, {"measurement": "GI50", "setting": "OVCAR-3", "result": "> 100 µM (inactive)"}, {"measurement": "GI50", "setting": "U-251", "result": "> 100 µM (inactive)"}, {"measurement": "GI50", "setting": "OVCAR-5", "result": "> 100 µM (inactive)"}, {"measurement": "GI50", "setting": "IGROV-1", "result": "> 100 µM (inactive)"}, {"measurement": "GI50", "setting": "CCRF-CEM", "result": "31.9 µM (inactive)"}, {"measurement": "GI50", "setting": "HT-29", "result": "> 100 µM (inactive)"}, {"measurement": "GI50", "setting": "ACHN", "result": "37.8 µM (inactive)"}, {"measurement": "GI50", "setting": "SF-539", "result": "> 100 µM (inactive)"}, {"measurement": "GI50", "setting": "HOP-62", "result": "> 100 µM (inactive)"}, {"measurement": "GI50", "setting": "HCC 2998", "result": "> 100 µM (inactive)"}, {"measurement": "GI50", "setting": "LOX IMVI", "result": "> 100 µM (inactive)"}, {"measurement": "GI50", "setting": "NCI-H460", "result": "> 100 µM (inactive)"}, {"measurement": "GI50", "setting": "SW-620", "result": "> 100 µM (inactive)"}, {"measurement": "GI50", "setting": "SNB-75", "result": "> 100 µM (inactive)"}, {"measurement": "GI50", "setting": "MOLT-4", "result": "> 100 µM (inactive)"}, {"measurement": "GI50", "setting": "OVCAR-4", "result": "> 100 µM (inactive)"}, {"measurement": "GI50", "setting": "RPMI-8226", "result": "> 100 µM (inactive)"}, {"measurement": "GI50", "setting": "SK-OV-3", "result": "> 100 µM (inactive)"}, {"measurement": "GI50", "setting": "T47D", "result": "> 100 µM (inactive)"}, {"measurement": "GI50", "setting": "HOP-92", "result": "> 100 µM (inactive)"}, {"measurement": "GI50", "setting": "Hs-578T", "result": "> 100 µM (inactive)"}, {"measurement": "GI50", "setting": "NCI-H522", "result": "> 100 µM (inactive)"}, {"measurement": "GI50", "setting": "HCT-15", "result": 50.5, "unit": "µM"}, {"measurement": "GI50", "setting": "UACC-257", "result": "> 100 µM (inactive)"}, {"measurement": "GI50", "setting": "SF-268", "result": "> 100 µM (inactive)"}, {"measurement": "GI50", "setting": "EKVX", "result": "> 100 µM (inactive)"}, {"measurement": "GI50", "setting": "SK-MEL-28", "result": "> 100 µM (inactive)"}]}
